Series [1] concerns HIV-1 L100I mutant strain. Description: microbe, parasite or virus in culture. Format: cell-based. To be noted: for EC50: Human immunodeficiency virus 1, MT4, read-out: EC50 L100I. The method, then:
(§1) All data were calculated using the median optical density (OD) value of three wells.

Series [2] has as its system HIV-1 Y188L mutant strain. Description: microbe, parasite or virus in culture. Format: cell-based. To be noted: for EC50: Human immunodeficiency virus 1, MT4, read-out: EC50 Y188L. The method, then: as §1
Series [3] relates to HIV-1 double-mutant strain RES056 (K103N/Y181C). In words: microbe, parasite or virus in culture. To be noted: for EC50: Human immunodeficiency virus 1, MT4, read-out: EC50 RES056; for RF RES056: ratio EC50(resistant strain)/EC50(wild-type strain); for SI RES056: selectivity index, ratio CC50/EC50, RES056. Format: cell-based. As to the method: as §1
The test system of a further series is wild-type HIV-1 (IIIB). Description: microbe, parasite or virus in culture. Format: cell-based. To be noted: for EC50: Human immunodeficiency virus 1, MT4, MT-4 cells, HIV-1 IIIB, MTT method; for RF IIIB: ratio EC50(resistant strain)/EC50(wild-type strain); for SI IIIB: selectivity index, ratio CC50/EC50, IIIB. The method, then: as §1
A general note: Tetrazolium dyes change colour on reduction, which living cells bring about.

In series [4] the test system is HIV-1 E138K mutant strain. Description: microbe, parasite or virus in culture. Format: cell-based. To be noted: for EC50: Human immunodeficiency virus 1, MT4, read-out: EC50 E138K. The method, then: as §1
Series [5] concerns HIV-1 Y181C mutant strain. In words: microbe, parasite or virus in culture. To be noted: for EC50: Human immunodeficiency virus 1, MT4, read-out: EC50 Y181C, MT-4 cells, Y181C, MTT method. Format: cell-based. As to the method:
as §1

Series [6] has as its system HIV-1 K103N mutant strain. Description: microbe, parasite or virus in culture. Format: cell-based. To be noted: for EC50: Human immunodeficiency virus 1, MT4, read-out: EC50 K103N, MT-4 cells, K103N, MTT method. The method, then: as §1
Series [7] in a line: Cytotoxicity in mock-infected MT-4 cells, MTT method. In kind it is cell-based. To be noted: human. The method, then: The 3-(4,5-dimethylthiazol-2-yl)-2,5-diphenyltetrazolium bromide (MTT) method was used to evaluate the antiviral activity and cytotoxicity of the synthesized compounds as previously described. At the beginning of each experiment, stock solutions (10× final concentration) of test compounds were added in 25 μL volumes to two series of triplicate wells for allowing the simultaneous evaluation of their effects on mock- and HIV-infected cells. The serial 5-fold dilutions of the compounds were made in flat-bottomed 96-well microtiter trays directly, including untreated control HIV-1 and mock infected cell samples for each sample using a Biomek 3000 robot (Beckman Instruments, Fullerton, CA, USA). HIV-1 (IIIB) and mutant HIV-1 strains (RES056, F227L/V106A, L100I, K103N, E138K, Y181C, and Y188L) stock (50 μL at 100–300 CCID50) (50% cell culture infectious dose) or culture medium was added to either the infected or mock-infected wells of the microtiter tray. Mock-infected cells were used to evaluate the effect on uninfected cells to assess the cytotoxicity of the test compounds. Exponentially growing MT-4 cells were centrifuged for […] at 1000 rpm (Eppendorf 5424, Hamburg, Germany) and then the supernatant was discarded. The MT-4 cells were resuspended at 6 × 10^5 cells/mL and 50 μL aliquots were transferred to the microtiter tray wells. At 5 days after infection, the viability of mock- and HIV-infected cells was determined spectrophotometrically by means of MTT assay.
The MTT assay is based on the reduction of yellow-colored MTT (Acros Organics, Geel, Belgium) by mitochondrial dehydrogenase of metabolically active cells to form a blue-purple formazan. The absorbances were read in an eight-channel computer-controlled photometer at the wavelengths of 540 and 690 nm. All data were calculated using the median optical density (OD) value of three wells.

Series [8] has as its system HIV-1 F227L + V106A mutant strain. In words: microbe, parasite or virus in culture. Format: cell-based. To be noted: for EC50: Human immunodeficiency virus 1, MT4, read-out: EC50 F227L + V106A. The method, then: as §1
Setting [9] is: mock-infected MT-4 cells, MTT method, read-out: CC50.

Structures are written as SMILES. Where two headings read alike, the source gives them in different places. Some results are limits rather than exact numbers.

Usually EC50 stands for the concentration needed to bring the measured effect to its halfway point. One may read the CC50 as the concentration that lowers cell viability or growth by half. With `O=C1Nc2ccc(Cl)cc2[C@@](C#CC2CC2)(C(F)(F)F)O1` [EFV, efavirenz, reference compound], the EC50 came to 32 ± 8 nM in [1]; 261 ± 118 nM in series [2]; 337 ± 149 nM in series [3]; 3 ± 1 nM in the series on wild-type HIV-1 (IIIB); 6 ± 2 nM in [4]; 5 ± 2 nM in [5]. For the same compound, the half-maximal effective concentration (EC50) in series [6] came to 71 ± 20 nM. Moreover, the CC50 at 5 days in series [7] (setting [9]) was greater than 6350 nM.
What is called melting point is the temperature, or range, at which the solid turns liquid. `Cc1cc(C#N)cc(C)c1Oc1nc(Nc2ccc(B3OC(C)(C)C(C)(C)O3)cc2)nc2c1CCCC2` [Compound 3i, 3,5-Dimethyl-4-((2-((4-(4,4,5,5-tetramethyl-1,3,2-dioxaborolan-2-yl)phenyl)amino) -5,6,7,8-tetrahydroquinazolin-4-yl)oxy)benzonitrile]: the melting point is 233 to 235 °C. In addition, in series [3], the EC50 was greater than 27700 nM, the “RF RES056” value is listed as greater than 145 and the “SI RES056” value is less than 1. In the series with wild-type HIV-1 (IIIB), the concentration for a half-maximal effect (EC50) is 191 ± 88 nM, the “RF IIIB” value is 1.0 and the “SI IIIB” value came to 145. In series [7], the CC50 at 5 days worked out at 27700 ± 1270 nM.
With `Cc1cc(C#N)cc(C)c1Oc1nc(Nc2ccc(B3OC(C)(C)C(C)(C)O3)cc2)nc2ccccc12` [Compound 3g, 3,5-Dimethyl-4-((2-((4-(4,4,5,5-tetramethyl-1,3,2-dioxaborolan-2-yl)phenyl)amino)quinazolin-4-yl)oxy)benzonitrile], the melting point lay in the range of 147 to 149 °C. Moreover, in series [3], the EC50 is greater than 254000 nM and the “RF RES056” value is greater than 41.1. Moreover, in the series on wild-type HIV-1 (IIIB), the concentration giving a half-maximal response (EC50) was found to be 6170 ± 1830 nM, the “RF IIIB” value is 1.0 and the “SI IIIB” value is recorded as greater than 41. The cytotoxic concentration (CC50) at 5 days in [7] was greater than 254000 nM.
For `Cc1cc(C#N)cc(C)c1Oc1nc(Nc2ccc(B3OC(C)(C)C(C)(C)O3)cc2)nc2cccnc12` [Compound 3h, 3,5-Dimethyl-4-((2-((4-(4,4,5,5-tetramethyl-1,3,2-dioxaborolan-2-yl)phenyl)amino)pyrido [3,2-d]pyrimidin-4-yl)oxy)benzonitrile], the melting point was in the range of 177 to 179 °C. In addition, in series [3], the EC50 is greater than 26000 nM, the “RF RES056” value is recorded as greater than 232 and the “SI RES056” value is on record as less than 1. In the series on wild-type HIV-1 (IIIB), the “fold more potent than 3g” value is listed as 55 fold; the midpoint of the response, the EC50, lay at 112 ± 24 nM; the “RF IIIB” value was found to be 1.0; the “SI IIIB” value was 232. In series [7], this compound showed a CC50 at 5 days of 26000 ± 2330 nM.
Consider `Cc1cc(C#N)cc(C)c1Oc1nc(Nc2ccc(B3OC(C)(C)C(C)(C)O3)cc2)nc2scnc12` [Compound 3e, 3,5-Dimethyl-4-((5-((4-(4,4,5,5-tetramethyl-1,3,2-dioxaborolan-2-yl)phenyl)amino)thiazolo [5,4-d]pyrimidin-7-yl)oxy)benzonitrile], for which, in series [3], the EC50 is greater than 26500 nM and the “RF RES056” value is on record as greater than 123. Besides, in the series on wild-type HIV-1 (IIIB), the EC50 is 215 ± 91 nM and the “RF IIIB” value was found to be 1.0. In [7], this compound gave a cytotoxic concentration (CC50) at 5 days of 26500 ± 1780 nM.
As to `Cc1ccnc2c1NC(=O)c1cccnc1N2C1CC1` [NVP, nevirapine, reference compound], the EC50 in series [1] is 623 ± 277 nM; in series [2], 9080 ± 2410 nM; in [3] it was greater than 15000 nM; in series [8] it was 8050 ± 3540 nM; with wild-type HIV-1 (IIIB), 151 ± 37 nM; in [4], 168 nM. For the same compound, the EC50 in [5] stood at 5060 ± 922 nM. Further, in series [1] (ratio EC50 (resistant viral strain)/EC50 (wild-type viral strain), L100I), the “RF L100I” value turned out to be 4.1. Further, in series [2] (ratio EC50 (resistant viral strain)/EC50 (wild-type viral strain), Y188L), the “RF Y188L” value is recorded as 60.4. Besides, in [3], the “RF RES056” value worked out at 99.9. Further, the “RF F227L + V106A” value in [8] (ratio EC50 (resistant viral strain)/EC50 (wild-type viral strain), F227L + V106A) is given as 53.5. For the same compound, the “RF IIIB” value in the series with wild-type HIV-1 (IIIB) is 1.0. Besides, in series [4] (ratio EC50 (resistant viral strain)/EC50 (wild-type viral strain), E138K), the “RF E138K” value came out at 1.1. For the same compound, in series [5] (ratio EC50 (resistant viral strain)/EC50 (wild-type viral strain), Y181C), the “RF Y181C” value is 33.6. Also, in [6] (ratio EC50 (resistant viral strain)/EC50 (wild-type viral strain), K103N), the “RF K103N” value came to 26.1. Besides, the CC50 at 5 days in series [7] (setting [9]) is greater than 15000 nM.
With `Cc1cc(C#N)cc(C)c1Oc1nc(Nc2ccc(B3OC(C)(C)C(C)(C)O3)cc2)nc2sccc12` [Compound 3b, 3,5-Dimethyl-4-((2-((4-(4,4,5,5-tetramethyl-1,3,2-dioxaborolan-2-yl)phenyl)amino)thieno [2,3-d]pyrimidin-4-yl)oxy)benzonitrile], in series [3], the EC50 stood at 174000 ± 34500 nM and the “RF RES056” value is given as 134. Besides, in the series on wild-type HIV-1 (IIIB), the EC50 is 1300 ± 275 nM and the “RF IIIB” value amounted to 1.0. Moreover, the CC50 at 5 days in [7] is greater than 254000 nM.
As for `Cc1cc(C#N)cc(C)c1Oc1nc(Nc2ccc(C#N)cc2)nc(N)c1Br` [ETR, etravirine, reference compound], the EC50 was 8 ± 2 nM in series [1]; 19 ± 7 nM in series [2]; 61 ± 34 nM in series [3]; 26 ± 17 nM in [8]; 4 ± 1 nM with wild-type HIV-1 (IIIB); 10 ± 5 nM in series [4]. Further, the 50% effective concentration (EC50) in series [5] was 16 ± 5 nM; in series [6], 3 ± 8 nM. The same compound gave a CC50 at 5 days in series [7] greater than 4600 nM.
`Cc1cc(C#N)cc(C)c1Oc1nc(Nc2ccc(B3OC(C)(C)C(C)(C)O3)cc2)nc2ncsc12` [Compound 3d, 3,5-Dimethyl-4-((5-((4-(4,4,5,5-tetramethyl-1,3,2-dioxaborolan-2-yl)phenyl)amino)thiazolo [4,5-d]pyrimidin-7-yl)oxy)benzonitrile] came in with a melting point of 117 to 119 °C. In [3], the half-maximal effective concentration (EC50) was greater than 24100 nM, the “RF RES056” value was greater than 201 and the “SI RES056” value was less than 1. Moreover, in the series on wild-type HIV-1 (IIIB), the EC50 is 120 ± 56 nM, the “RF IIIB” value is given as 1.0 and the “SI IIIB” value turned out to be 201. In series [7], this compound had a CC50 at 5 days of 24100 ± 3760 nM.
`Cc1cc(C#N)cc(C)c1Oc1nc(Nc2ccc(B3OC(C)(C)C(C)(C)O3)cc2)nc2c1SCCC2` [Compound 3j, 3,5-Dimethyl-4-((2-((4-(4,4,5,5-tetramethyl-1,3,2-dioxaborolan-2-yl)phenyl)amino) -7,8-dihydro-6H-thiopyrano [3,2-d]pyrimidin-4-yl)oxy)benzonitrile] registered a melting point of 201 to 203 °C. Also, in [3], the EC50 was greater than 25900 nM, the “RF RES056” value is recorded as greater than 184 and the “SI RES056” value is given as less than 1. For the same compound, in the series on wild-type HIV-1 (IIIB), the half-maximal effective concentration (EC50) is 141 ± 53 nM, the “RF IIIB” value worked out at 1.0 and the “SI IIIB” value stood at 184. Further, the CC50 at 5 days in [7] was 25900 ± 1410 nM.
In turn, `Cc1cc(C#N)cc(C)c1Oc1ccnc(Nc2ccc(B3OC(C)(C)C(C)(C)O3)cc2)n1` [Compound 3f, 3,5-Dimethyl-4-((2-((4-(4,4,5,5-tetramethyl-1,3,2-dioxaborolan-2-yl)phenyl)amino)pyrimidin-4-yl)oxy)benzonitrile] had a melting point of 202 to 204 °C. In addition, in series [3], the EC50 was greater than 30600 nM, the “RF RES056” value is greater than 206 and the “SI RES056” value is recorded as less than 1. Moreover, in the series with wild-type HIV-1 (IIIB), it took 149 ± 49 nM to reach a half-maximal effect (EC50), the “RF IIIB” value is 1.0 and the “SI IIIB” value was 206. The compound also returned a CC50 at 5 days in series [7] of 30600 ± 1920 nM.
